Where “and” joins values, the source holds several entries; their conditions need not be identical. Identical values can stand only once. Toxic doses and inconclusive results are not listed. The calls were made as follows: active = survival T/C of 150% or more; inactive = T/C below 125% in these data.
System: BDF1 mice, P388 leukemia ip, median survival T/C
Experiment: NCI In Vivo Anticancer Drug Screen. Data for tumor model P388 Leukemia (intraperitoneal) in B6D2F1 (BDF1) mice
Conditions: endpoint: median survival time, higher = longer survival
In short: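 Transplantable tumour in mice; compound vs vehicle dosing; survival scored; ratio of treated to control reported.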

[1] = dose: 50.0 mg/kg/injection, schedule: Q01DX009 (ip), vehicle: saline with Tween-80
[2] = dose: 100.0 mg/kg/injection, schedule: Q01DX009 (ip), vehicle: saline with Tween-80
[3] = dose: 200.0 mg/kg/injection, schedule: Q01DX009 (ip), vehicle: saline with Tween-80
[4] = dose: 12.5 mg/kg/injection, schedule: Q01DX009 (ip), vehicle: Klucel (hydroxypropylcellulose) (HPC)
[5] = dose: 25.0 mg/kg/injection, schedule: Q01DX009 (ip), vehicle: Klucel (hydroxypropylcellulose) (HPC)
[6] = dose: 50.0 mg/kg/injection, schedule: Q01DX009 (ip), vehicle: Klucel (hydroxypropylcellulose) (HPC)
[7] = dose: 25.0 mg/kg/injection, schedule: Q01DX009 (ip), vehicle: saline
[8] = dose: 50.0 mg/kg/injection, schedule: Q01DX009 (ip), vehicle: saline
[9] = dose: 50.0 mg/kg/injection, schedule: Q04DX003 (ip), vehicle: saline
[10] = dose: 100.0 mg/kg/injection, schedule: Q04DX003 (ip), vehicle: saline
[11] = dose: 100.0 mg/kg/injection, schedule: Q04DX003 (ip), vehicle: Klucel (hydroxypropylcellulose) (HPC)
[12] = dose: 100.0 mg/kg/injection, schedule: Q04DX003 (ip), vehicle: saline with Tween-80
[13] = dose: 200.0 mg/kg/injection, schedule: Q04DX003 (ip), vehicle: saline with Tween-80
[14] = dose: 12.5 mg/kg/injection, schedule: Q01DX009 (ip), vehicle: saline
[15] = dose: 200.0 mg/kg/injection, schedule: Q04DX003 (ip), vehicle: saline
[16] = dose: 400.0 mg/kg/injection, schedule: Q04DX003 (ip), vehicle: saline

Measured: T/C

CC12CCC(O)CC1CCC1C2CCC2(C)C(C3=CC(=O)OC3)CCC12 (stereo unspecified)
inactive: dose: 140.0 mg/kg/injection, schedule: Q01DX010 (ip), vehicle: carboxymethylcellulose (CMC) 122 % of control | dose: 280.0 mg/kg/injection, schedule: Q01DX010 (ip), vehicle: carboxymethylcellulose (CMC) 122 % of control

CC1(C)CC(C)(OC(=O)c2ccccc2)N=N1 (stereo unspecified)
inactive: dose: 25.0 mg/kg/injection, schedule: Q01DX005 (ip), vehicle: other 98 % of control | dose: 50.0 mg/kg/injection, schedule: Q01DX005 (ip), vehicle: other 98 % of control | dose: 100.0 mg/kg/injection, schedule: Q01DX005 (ip), vehicle: other 99 % of control | dose: 200.0 mg/kg/injection, schedule: Q01DX005 (ip), vehicle: other 99 % of control | dose: 400.0 mg/kg/injection, schedule: Q01DX005 (ip), vehicle: other 119 % of control

CC[N+](CC)(CC)CCCCCCCCCC[N+](CC)(CC)CC
inactive: dose: 0.25 mg/kg/injection, schedule: Q01DX009 (ip), vehicle: water 91 % of control | dose: 0.39 mg/kg/injection, schedule: Q04DX003 (ip), vehicle: water 102 % of control and 107 % of control | dose: 0.5 mg/kg/injection, schedule: Q01DX009 (ip), vehicle: water 112 % of control | dose: 0.5 mg/kg/injection, schedule: Q04DX003 (ip), vehicle: saline with Tween-80 92 % of control | dose: 0.78 mg/kg/injection, schedule: Q04DX003 (ip), vehicle: saline with Tween-80 100 % of control | dose: 0.78 mg/kg/injection, schedule: Q04DX003 (ip), vehicle: water 98 % of control and 120 % of control | dose: 1.0 mg/kg/injection, schedule: Q01DX009 (ip), vehicle: water 91 % of control and 105 % of control | dose: 1.0 mg/kg/injection, schedule: Q04DX003 (ip), vehicle: saline with Tween-80 92 % of control | dose: 1.56 mg/kg/injection, schedule: Q04DX003 (ip), vehicle: water 95 % of control and 104 % of control

CCOC(=O)N(CCN(C(=O)OCC)c1ccccc1)c1ccccc1
inactive: [1] 98 % of control | [2] 108 % of control | [3] 110 % of control

CCCCn1cnc2c(SC3CCCC3)ncnc21
inactive: dose: 100.0 mg/kg/injection, schedule: Q01DX009 (ip), vehicle: other 100 % of control | dose: 100.0 mg/kg/injection, schedule: Q04DX003 (ip), vehicle: saline sonified 100 % of control | dose: 200.0 mg/kg/injection, schedule: Q01DX009 (ip), vehicle: other 90 % of control | dose: 200.0 mg/kg/injection, schedule: Q04DX003 (ip), vehicle: saline sonified 100 % of control | dose: 400.0 mg/kg/injection, schedule: Q01DX009 (ip), vehicle: other 120 % of control | dose: 400.0 mg/kg/injection, schedule: Q04DX003 (ip), vehicle: saline sonified 100 % of control

O=C(NNc1ccccc1)C(F)(F)F
inactive: [4] 90 % of control | [5] 95 % of control | dose: 37.5 mg/kg/injection, schedule: Q04DX003 (ip), vehicle: saline with Tween-80 100 % of control | [6] 110 % of control | dose: 56.25 mg/kg/injection, schedule: Q01DX001 (ip), vehicle: saline with Tween-80 104 % of control | dose: 75.0 mg/kg/injection, schedule: Q04DX003 (ip), vehicle: saline with Tween-80 104 % of control | dose: 112.5 mg/kg/injection, schedule: Q01DX001 (ip), vehicle: saline with Tween-80 100 % of control

Cc1cc2nc3ccc(=[N+](C)C)cc-3sc2cc1N
inactive: [7] 90 % of control and 113 % of control | dose: 25.0 mg/kg/injection, schedule: Q04DX003 (ip), vehicle: saline 109 % of control and 96 % of control | [8] 100 % of control and 113 % of control | [9] 114 % of control | [10] 121 % of control

CNC(=O)OCCN(CCOC(=O)NC)C(=O)N1c2ccccc2Sc2ccccc21
inactive: dose: 25.0 mg/kg/injection, schedule: Q01DX009 (ip), vehicle: saline with Tween-80 95 % of control and 107 % of control | [1] 98 % of control | [2] 98 % of control and 116 % of control | [3] 115 % of control

CC(=O)CC(=O)c1ccccc1
inactive: dose: 100.0 mg/kg/injection, schedule: Q01DX001 (ip), vehicle: Klucel (hydroxypropylcellulose) (HPC) 112 % of control | [11] 108 % of control | dose: 200.0 mg/kg/injection, schedule: Q01DX001 (ip), vehicle: Klucel (hydroxypropylcellulose) (HPC) 95 % of control | dose: 200.0 mg/kg/injection, schedule: Q04DX003 (ip), vehicle: Klucel (hydroxypropylcellulose) (HPC) 108 % of control | dose: 400.0 mg/kg/injection, schedule: Q01DX001 (ip), vehicle: Klucel (hydroxypropylcellulose) (HPC) 91 % of control | dose: 400.0 mg/kg/injection, schedule: Q04DX003 (ip), vehicle: Klucel (hydroxypropylcellulose) (HPC) 112 % of control

Oc1cc2c(cc1O)C1c3ccc(O)c(O)c3OCC1(O)C2 (stereo unspecified)
inactive: [1] 97 % of control | [2] 118 % of control | [3] 102 % of control | dose: 400.0 mg/kg/injection, schedule: Q01DX009 (ip), vehicle: saline with Tween-80 103 % of control

COc1ccccc1NC(=S)N(C)C
inactive: [1] 100 % of control | dose: 50.0 mg/kg/injection, schedule: Q04DX003 (ip), vehicle: saline with Tween-80 113 % of control | [2] 105 % of control | [12] 109 % of control | [3] 110 % of control | [13] 104 % of control

O=C(/C=C/c1ccncc1)c1cccc2ccccc12
inactive: [14] 102 % of control | [7] 108 % of control | [8] 100 % of control | dose: 100.0 mg/kg/injection, schedule: Q01DX009 (ip), vehicle: saline 116 % of control

NC(CSC(c1ccccc1)(c1ccccc1)c1ccc2ccccc2c1)C(=O)O (stereo unspecified)
inactive: [14] 89 % of control | dose: 45.0 mg/kg/injection, schedule: Q04DX003 (ip), vehicle: saline 86 % of control | [15] 95 % of control
active: dose: 2.75 mg/kg/injection, schedule: Q01DX009 (ip), vehicle: saline 173 % of control | dose: 4.12 mg/kg/injection, schedule: Q01DX009 (ip), vehicle: saline 227 % of control | dose: 6.25 mg/kg/injection, schedule: Q01DX009 (ip), vehicle: saline 250 % of control | [4] 216 % of control | [5] 333 % of control | dose: 25.0 mg/kg/injection, schedule: Q04DX003 (ip), vehicle: Klucel (hydroxypropylcellulose) (HPC) 210 % of control | dose: 29.0 mg/kg/injection, schedule: Q04DX003 (ip), vehicle: saline 200 % of control | [6] 200 % of control | dose: 50.0 mg/kg/injection, schedule: Q04DX003 (ip), vehicle: Klucel (hydroxypropylcellulose) (HPC) 200 % of control | [9] 300 % of control | dose: 66.0 mg/kg/injection, schedule: Q04DX003 (ip), vehicle: saline 272 % of control | [11] 300 % of control | [10] 300 % of control and 154 % of control

COc1cc2ccnc(Cc3ccccc3)c2cc1OC
inactive: [2] 109 % of control | [12] 109 % of control | [3] 104 % of control | [13] 109 % of control | dose: 400.0 mg/kg/injection, schedule: Q04DX003 (ip), vehicle: saline with Tween-80 109 % of control

CC(C)C1(C)NC(=O)NC1=O (stereo unspecified)
inactive: dose: 100.0 mg/kg/injection, schedule: Q01DX001 (ip), vehicle: saline 113 % of control | dose: 200.0 mg/kg/injection, schedule: Q01DX001 (ip), vehicle: saline 109 % of control | dose: 400.0 mg/kg/injection, schedule: Q01DX001 (ip), vehicle: saline 95 % of control

CN(C)C(=S)N(C)C
inactive: [10] 100 % of control | [15] 100 % of control | [16] 118 % of control

O=C(O)CCC(=O)c1ccc(C2CCCCCC2)cc1
inactive: [1] 110 % of control | [2] 115 % of control | [10] 95 % of control | [3] 110 % of control | [16] 100 % of control

Cn1c2ccccc2c(=S)c2ccccc21
inactive: dose: 100.0 mg/kg/injection, schedule: Q01DX001 (ip), vehicle: saline with Tween-80 89 % of control | dose: 200.0 mg/kg/injection, schedule: Q01DX001 (ip), vehicle: saline with Tween-80 90 % of control

CC1(C)OC1[Si](C)(C)C (stereo unspecified)
inactive: [1] 107 % of control | [2] 121 % of control | [3] 111 % of control

O=C(c1ccccc1)N1C=CN(C(=O)c2ccccc2)C1c1ncc[nH]1
inactive: [1] 105 % of control | [2] 105 % of control | [3] 106 % of control

Reference: PubChem BioAssay AID328 (DTP/NCI, 2004)
